Measurements taken from patent US10307463B2 (priority 2003, dated 2019).

Legend:
[1] = pH 4
[2] = in vivo; details: rat
[3] = in vivo; details: dog
[4] = system: dogs; details: dog, in vivo
[5] = system: respiratory minute volume responses to CO2; details: rat, in vivo
[6] = system: gross behavioral and cardiovascular effects; details: rat, in vivo
[7] = system: rats; details: rat, in vivo
[8] = system: GI transit; details: rat, in vivo

CSCC[C@@H]1NC(=O)[C@H](CC(C)C)NC(=O)[C@H](CCCNC(=N)N)NC(=O)[C@H](CO)NC(=O)[C@@H]2CSSC[C@@H]3NC(=O)[C@H](CO)NC(=O)CNC(=O)[C@H]([C@@H](C)O)NC(=O)[C@H](CSSC[C@H](N)C(=O)N[C@@H](CCCCN)C(=O)NCC(=O)N[C@@H](CCCCN)C(=O)NCC(=O)N[C@@H](C)C(=O)N[C@@H](CCCCN)C(=O)N2)NC(=O)[C@H](CSSC[C@@H](C(N)=O)NC(=O)[C@H](CCCCN)NC(=O)CNC(=O)[C@H](CO)NC(=O)[C@H](CCCNC(=N)N)NC3=O)NC(=O)[C@H](CC(=O)O)NC(=O)[C@H](Cc2ccc(O)cc2)NC1=O [ziconotide]
stability in solution [1]: stable at 45 °C for weeks | level at 672 h [2]: < 4 ng/mL | level at 672 h [3]: < 4 ng/mL | body weight, food intake or clinical pathology parameters [4]: no treatment-related changes | granuloma formation at the catheter tip [4]: no granuloma formation | mean plasma drug level relative to human [4]: ~10 fold | moribund euthanasia due to CNS effects (tremors, shaking-behavior, ataxia) [4]: 4/16 | target organ toxicity at termination [4]: nor was any target organ toxicity identified | respiratory depression, subacute administration [5]: did not induce respiratory depression | respiratory minute volume responses to CO2 / acute respiratory depression [5]: did not depress | gross behavioral and cardiovascular effects [6]: well tolerated | body weight, food intake or clinical pathology parameters [7]: no treatment-related changes | mean plasma drug level relative to human [7]: approximately 3 fold | target organ toxicity at termination [7]: nor was any target organ toxicity identified | GI transit [8]: does not itself affect GI tract motility
